# Data reported in article PMC8071358, “Targeting of the Essential acpP, ftsZ, and rne Genes in Carbapenem-Resistant Acinetobacter baumannii by Antisense PNA Precision Antibacterials” (Biomedicines, 2021).
# What was measured:
# Format in all cases: cell-based, Acinetobacter baumannii
# [1] = tested on: acpP mRNA in CRAB AC44 strain; experiment: Real-time RT-PCR of target mRNA; conditions: AC44, 1 h treatment, normalised to 16S rRNA, against untreated control
# Protocol: (§1) Real time RT-PCR was used to determine the relative expression level of the target gene upon treatment with match BPP-PNA compared to mismatch and untreated controls. The primers for q-PCR were designed to match conserved gene sequences using the AlleleID7 software (Premier Biosoft, San Francisco, CA, USA) (Table S6). Additionally, for more accurate expression of the genes at treatment and untreated conditions, the efficacy of target gene and internal controls primers was calculated by using three consecutive dilutions of the sample cDNA and drawing a standard curve through the slope of the line. […] Statistical analysis was carried out on the gene expression levels normalized to the chosen reference gene (16S rRNA) through −∆Ct analysis. The relative expression of each gene was determined by the 2^−ΔΔCT method. We used the GenEx standard (NormFinder and GeNorm) software (bioMCC, Germany) for analyzing the data.
# (§2) An overnight culture of bacteria was diluted 1:100 in MHB medium and was grown with shaking (160 rpm) at 37 °C to reach the OD595 = 0.2. Then, the bacterial culture was treated with different concentrations of BPP-PNA for 1 h and the bacterial cells were harvested by centrifugation and the cell pellet used for RNA extraction.
# (§3) Total RNA was isolated using the GeneJET RNA purification kit (ThermoFisher Scientific, Roskilde, Denmark) following the manufacturer’s protocol. RNA samples were treated with DNase for 30 min at 37 °C (Turbo DNA-free kit Ambion/Applied Biosystems, Carlsbad, CA, USA) and then incubated at 72 °C for 5 min to inactivate the DNase. The genomic DNA (gDNA) contamination was checked by polymerase chain reaction (PCR). RNA concentrations were determined by Nanodrop spectrophotometry at 260 nm and purity was checked by determining the absorption ratios at 260/280 nm. Total RNA (0.5 μg) was reverse-transcribed to yield cDNA as template for real-time quantitative PCR using the Quanti Tect reverse transcription kit (Qiagen, Copenhagen, Denmark). The cDNA was diluted 1:50 and used as a template in the reaction. […]
# CRAB strain AC9 = experiment: BPP-PNA MIC, broth microdilution; conditions: MHB without cation (Oxoid); 37 °C, 18 h
# How it was run: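 Broth microdilution used an overnight culture diluted to about 5 × 10^5 CFU/mL in non-cation-adjusted Mueller Hinton Broth, mixed with 2-fold serial dilutions of BPP-PNA (16 to 0.5 µM in the dilution plate, not final). Plates were shaken at 37 °C for 18 h with OD595 read every 20 min.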
# [2] = tested on: ftsZ mRNA in CRAB AC44 strain; experiment: Real-time RT-PCR of target mRNA; conditions: AC44, 1 h after treatment, normalised to 16S rRNA, against untreated control
# Protocol: as §1, §2, §3
Substance,reduction in the level of the acpP mRNA [1] [fold],"MIC, AC9 (CRAB strain AC9) [µM]",reduction in ftsZ mRNA [2]
"H-(KFF)3K-eg1-TGATTTGCCAC-NH2 (antisense; N-terminal (KFF)3K-eg1 peptide, C-terminal amide, backbone not given here, further chemistry not given here) [PNA 5639, anti-acpP peptide-PNA conjugate, match, +1 to +11]",> 34,–,–
"H-(KFF)3K-eg1-GAGGCCATGAC-NH2 (antisense; N-terminal (KFF)3K-eg1 peptide, C-terminal amide, backbone not given here, further chemistry not given here) [PNA 5612, anti-ftsZ peptide-PNA conjugate, match, −3 to +8]",–,2,up to 60%
